Read-outs that look alike come from different tables or passages of the source.
Legend:
[1] = target: T1, Recombinant human cathepsin K (Homo sapiens, UniProt P43235); assay: Recombinant cathepsin inhibition, gel-based competition with GB123 probe; assay type: biochemical; conditions: for concentration at which significant CTSK inhibition starts: Figure S5, recombinant CTSK
T1 construct: made in house
T1 sequence (P43235 115-329): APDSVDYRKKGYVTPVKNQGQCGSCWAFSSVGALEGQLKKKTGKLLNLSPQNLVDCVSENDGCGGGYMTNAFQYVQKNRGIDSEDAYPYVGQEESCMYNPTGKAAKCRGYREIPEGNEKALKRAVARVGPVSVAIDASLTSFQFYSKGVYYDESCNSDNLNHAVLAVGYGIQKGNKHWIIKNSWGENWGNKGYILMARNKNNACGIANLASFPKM
Procedure: (§1) In-gel fluorescence analysis was used to detect the residual activity of the cathepsins by applying pan-cathepsin probe GB123 to detect the stable enzyme–probe complex. This approach is used for testing inhibition and selectivity.[37],[41]
(§2) Recombinant human cathepsin L (0.5 μM), cathepsin B (0.5 μM), cathepsin K (0.5 μM), and cathepsin S (0.5 μM) were pretreated with different concentrations of inhibitors (GD compounds, odanacatib) for 1 h in reaction buffer (50 mM acetate, 2 mM dithiothreitol (DTT), and 5 mM MgCl2, pH 5.5) at 37 °C. GB123 (1 μM) was added and incubated with samples for 60 min at 37 °C.[37],[41] The reaction was stopped by the addition of sample buffer 4× (40% glycerol, 0.2 M Tris/HCl pH 6.8, 20% β-mercaptoethanol, 12% SDS, and 0.4 mg/mL bromophenol blue). Samples were then boiled, separated on a 12.5% SDS gel, and scanned for fluorescence by a Typhoon scanner FLA 9500 at excitation and emission wavelengths of 635 and 670 nm for GB123.
(§3) graphs were generated in GraphPad Prism software.

[2] = target: T2, Recombinant human cathepsin L (Homo sapiens, UniProt P07711); assay: as above; assay type: biochemical; conditions: Table S2; three independent competition gel-based experiments; read-out: CTSL (IC50)
T2 construct: made in house
T2 sequence (P07711 114-333): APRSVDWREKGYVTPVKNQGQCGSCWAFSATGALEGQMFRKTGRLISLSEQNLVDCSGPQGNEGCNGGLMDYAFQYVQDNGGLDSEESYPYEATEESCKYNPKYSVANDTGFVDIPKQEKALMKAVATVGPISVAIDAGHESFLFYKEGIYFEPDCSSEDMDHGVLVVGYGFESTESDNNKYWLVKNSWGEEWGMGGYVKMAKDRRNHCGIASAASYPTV
Procedure: as §1, §2, §3

[3] = target: T3, Recombinant human cathepsin B (Homo sapiens, UniProt P07858); assay: as above; assay type: biochemical; conditions: Table S2; three independent competition gel-based experiments; read-out: CTSB (IC50)
T3 construct: made in house
Procedure: as §1, §2, §3

CTSS = target: T4, CTSS (Homo sapiens, UniProt P25774); assay: Kinetic evaluation of recombinant cathepsin inhibition, fluorogenic substrate Z-FR-AMC; assay type: biochemical
T4 construct: made in house
T4 sequence (P25774 115-331): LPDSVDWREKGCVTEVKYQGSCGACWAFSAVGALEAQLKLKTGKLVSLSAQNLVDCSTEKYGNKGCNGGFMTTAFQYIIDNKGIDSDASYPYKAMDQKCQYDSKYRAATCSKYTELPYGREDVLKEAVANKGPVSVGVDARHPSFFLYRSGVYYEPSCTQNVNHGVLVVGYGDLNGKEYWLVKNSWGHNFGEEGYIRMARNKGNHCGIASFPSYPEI
Procedure: (§4) Cathepsin (0.4 nM, CatK) or 5 nM (CatS, CatB, and CatL) were each mixed with inhibitors before adding the fluorogenic substrate. The proteases were then reacted with their substrates, Z-RR-AMC (CatL) or Z-FR-AMC (CatS, CatB, and CatK), for 30 min at 37 °C in the phosphate buffer (100 mM Na2HPO4/NaH2PO4, 50 mM NaCl, 5 mM DTT, 0.1% PEG-6000, at pH 6). Reactions were done in 96-well black flat-bottom microplates (Greiner, Germany); fluorescence (Ex/Em 370 and 460 nm) was measured by a Tecan INFINITE M1000 pro plate reader (Tecan, Switzerland) in the presence of inhibitors or vehicle. For irreversible inhibitors, reaction data were analyzed by using the one-phase association formula in GraphPad Prism 9 software: Y = Y0 + (plateau – Y0) × (1 – exp(−K × X)), where Y0 and Y denote the fluorescence signals at times 0 and t, respectively, K represents the observed reaction rate kobs, and X signifies the […]. The inactivation rates at each inhibitor concentration were determined by subtracting the inactivation observed in the control sample: kobs – kctrl. The maximum inactivation rate (kinact) was derived as the asymptote from the equation Y = kinact × X/(Ki^app + X), where X represents the inhibitor concentration, Y is the observed inactivation rate for each X, and Ki^app is the apparent inhibition constant. Ki values were derived from IC50 or Ki^app using the equations Ki = Ki^app/(1 + […]) and IC50 = E0/2 + Ki^app, where Km represents the Michaelis–Menten constant, S denotes substrate concentration, and E0 indicates cathepsin concentration. The maximum inhibitor dose in the experiment was 50 μM. Measurements were conducted in multiple independent duplicates. Average values are listed.

CTSK = target: T5, CTSK (Homo sapiens, UniProt P43235); assay: as above; assay type: biochemical; conditions: for Ki: irreversible inhibitors
T5 construct: made in house
T5 sequence (P43235 115-329): T1 sequence (P43235 115-329)
Procedure: as §4

[4] = target: T6, endogenous matured CTSK in intact U2-OS and U-87 MG cells (Homo sapiens, UniProt P43235); assay: Competition assay in intact cells, GB123 labeling; assay type: cell-based; conditions: escalating doses
T6 construct: endogenous in cells; host or cells: U2-OS and U-87 MG
T6 sequence (P43235 115-329): T1 sequence (P43235 115-329)
Procedure: Two cell lines, human osteosarcoma U2-OS and human glioblastoma U-87 MG, that naturally express CTSK along with other lysosomal cathepsins, were chosen to evaluate the inhibitors’ potency and selectivity.[43],[44] First, the intact cells were incubated for various durations with escalating doses of the inhibitors, and the ODN was used as a control. The residual cathepsin activity in the cells was detected by adding a pan-cathepsin ABP, GB123, after which the cells were lysed. The probe-labeled enzymes were then separated and visualized using fluorescent SDS-PAGE (Figures 5a,b and S7).[45] In both cells, the activity of several cathepsins was detected, while the fluorescent band at approximately 25 kDa was correlated to CTSK by immunoblotting (shown below in Figure 5a, b). The identity of each labeled band was detected by immunoblotting (Figure S7).[45] A selective dose-dependent suppression of CTSK activity was obtained in a range of inhibitor concentrations.
Figure 5 Direct inhibition of endogenous matured CTSK in intact U2-OS and U-87 MG cells. (a) Intact U2-OS cells were treated with DMSO, ODN, or increasing concentrations of the inhibitors GD20 or GD38 in their culture medium for 2 h. Cells were then treated with GB123 (5 μM) for 2 h, lysed, and separated by SDS-PAGE, followed by fluorescent scanning of the gel using a Typhoon scanner at 635/670 nm. An immunoblot of CTSK of the same gel is presented below. Different cathepsins are marked by colored arrowheads; a red arrowhead marks mature CTSK. s. ch. = single chain, h. ch. = heavy chain.[45] (b) Intact U-87 MG cells were treated with the inhibitor, followed by GB123, as described in panel (a).
U-87 MG and U2-0S cells (5 × 10^5 cells/well) were seeded in a six-well plate 1 day before treatment. […] Proteins were quantified by bicinchoninic acid (BCA, Thermo Scientific); an equal quantity of proteins was prepared for all samples, and after the addition of sample buffer, the lysates were boiled for 10 min, centrifuged, and separated by 12.5% SDS-PAGE. […]

[5] = Figure 4b IC50 curves, recombinant CTSK 0.5 μM, read-out: IC50 for inhibiting CTSK activity

| SMILES | IC50 [1, 5] [nM] | concentration at which significant CTSK inhibition starts [1] [µM] | IC50 [2] [µM] | IC50 [3] [µM] | Ki (CTSS; maximum inhibitor dose 50 μM) [µM] | kinact (CTSK) [s⁻¹] | kinact/KI (CTSK) [M⁻¹ s⁻¹] | type of inhibition, CTSK (CTSK) | Ki (CTSK) [µM] | inhibition of CTSK and selectivity over other cathepsins in intact cells, in words [4] | IC50 ([1]; Table S2, three independent competition gel-based experiments, read-out: CTSK (IC50)) [nM] | kinact (CTSS) [s⁻¹] | kinact/KI (CTSS) [M⁻¹ s⁻¹] | type of inhibition, CTSS (CTSS) | Ki (CTSS; irreversible inhibitor) [µM] | IC50 ([1]; Table S2, value in nM, read-out: CTSK (IC50)) [nM] | Ki (CTSS; reversible) [µM] | IC50 (CTSK; reversible (tight binding)) [µM] |
| --- | --- | --- | --- | --- | --- | --- | --- | --- | --- | --- | --- | --- | --- | --- | --- | --- | --- | --- |
| CC(C)C[C@H](N[C@@H](c1ccc(-c2ccc(S(C)(=O)=O)cc2)cc1)C(F)(F)F)C(=O)NCC(=O)COC(=O)[C@@H]1CCCN1C(=O)[C@H](CC(C)C)NC(=O)OCC1c2ccccc2-c2ccccc21 [GD20] | 460 ± 77 | 0.25 | > 10 | > 10 | > 50 | 0.0026 | 232000 | irreversible | 0.013 | very selective at all concentrations tested | – | – | – | – | – | – | – | – |
| CC(C)C[C@H](N[C@@H](c1ccc(-c2ccc(S(C)(=O)=O)cc2)cc1)C(F)(F)F)C(=O)NCC(=O)COC(=O)[C@@H]1CCCN1C(=O)[C@H](CCC(N)=O)NC(=O)OCC1c2ccccc2-c2ccccc21 [GD38] | 210 ± 27 | 0.062 | > 10 | > 10 | – | 0.0032 | 230000 | irreversible | 0.0209 | slightly reduced the activity of other cathepsins at high concentrations and longer incubation times | 200 ± 20 | 0.009 | 178 | irreversible | 62 | – | – | – |
| CC(C)(F)C[C@H](N[C@@H](c1ccc(-c2ccc(S(C)(=O)=O)cc2)cc1)C(F)(F)F)C(=O)NC1(C#N)CC1 [ODN, odanacatib, reference compound] | – | – | > 10 | > 10 | – | – | – | reversible (tight binding) | – | could not detect | – | – | – | reversible | – | 350 ± 0.05 | 0.136 | 0.000942 |

From article PMC11938014, “Development and Application of Small Molecule–Peptide Conjugates as Cathepsin K-Specific Covalent Irreversible Inhibitors in Human Osteoclast and Lung Cancer” (JACS Au, 2025)
